One block for each molecule: values may come before it.
What was measured:
Experiment in all cases: Kinobeads elution with test compound, mouse brain lysate, MS
Assay type in all cases: binding
Conditions in all cases: kinase released from kinobeads by specific elution
CDK5 = CDK5 (Mus musculus, UniProt P49615)
Description: (§1) This example illustrates competitive elution of proteins bound to kinobeads with non-modified test compounds (see particularly the fourth aspect of the invention). The kinobeads (as described in example 1) were contacted with mouse brains lysate, bound proteins were eluted with various test compounds and the released proteins were analysed by mass spectrometry.
(§2) The kinobeads were contacted with mouse brain lysate under conditions that allow the binding of the proteins in the lysate to the ligands. The binding conditions were close to physiological by choosing suitable buffer conditions preserving the function of the proteins. After removing non-captured proteins through a gentle washing procedure the bound proteins were contacted with a test compound for protein elution.
(§3) Various test compounds (see section 2.7) were used to release bound proteins following these steps:
(§4) 1. Resuspend beads with bound proteins (section 2.4) in 1×DP buffer/0.2% NP-40 as 1:3 slurry (volume/volume). 2. Transfer 20 μl the 1:3 slurry into MoBiTech columns (equivalent to 5 μl of beads). 3. Place the column into an Eppendorf tube and centrifuge it for 15 seconds at 800 rpm at 4° C. Close columns with lower lid. 4. Add 10 μl elution buffer containing 1.0 mM of the test compound (concentration ranges of 0.1 to 1.0 mM are suitable). As a control use elution buffer containing 2% DMSO or 2% DMF dependent on the solvent used for dissolving the test compound. Close column with upper lid. 5. Incubate for 30 minutes at 4° C. in an Eppendorf incubator at 700 rpm. 6. Open column (first top, then bottom), put column back into siliconized tube (SafeSeal Microcentrifuge Tubes, cat. no 11270, Sorenson BioScience, Inc.). To harvest the eluate centrifuge 2 minutes at 2.000 rpm in table top centrifuge at room temperature. The typical volume of the eluate is approximately 15 μl. 7. Add 5 μl 4× NuPAGE SDS Sample Buffer (Invitrogen, NP0007) containing 100 mM DTT (DTT has to be added just prior to use). 8. Incubate for 30 minutes at 50° C. 9. Add 1/10 volume of 200 mg/ml iodoacetamide, incubate for 30 min at room temperature, protect from light. This reaction leads to the alkylation of cysteines for mass spectrometry. 10. Before loading samples onto the gel, centrifuge samples for 5 minutes at 15.000 rpm in order to remove precipitates. 11. For protein separation apply 10 μl sample to NuPAGE 4-12% Bis-Tris gel (Invitrogen, NPO335). 2.6 Preparation of Stock Solutions used in this Protocol
(§5) Search criteria varied depending on which mass spectrometer was used for the analysis.

CaMKK2 = CaMKK2 (Mus musculus, UniProt Q8C078)
Description: as §1, §2, §3, §4, §5

CaMK2a = target: T1, CaMK2a (Mus musculus, UniProt P11798)
T1 construct: […]; from tissue; host or cells: mouse brain
T1 sequence (P11798 whole entry): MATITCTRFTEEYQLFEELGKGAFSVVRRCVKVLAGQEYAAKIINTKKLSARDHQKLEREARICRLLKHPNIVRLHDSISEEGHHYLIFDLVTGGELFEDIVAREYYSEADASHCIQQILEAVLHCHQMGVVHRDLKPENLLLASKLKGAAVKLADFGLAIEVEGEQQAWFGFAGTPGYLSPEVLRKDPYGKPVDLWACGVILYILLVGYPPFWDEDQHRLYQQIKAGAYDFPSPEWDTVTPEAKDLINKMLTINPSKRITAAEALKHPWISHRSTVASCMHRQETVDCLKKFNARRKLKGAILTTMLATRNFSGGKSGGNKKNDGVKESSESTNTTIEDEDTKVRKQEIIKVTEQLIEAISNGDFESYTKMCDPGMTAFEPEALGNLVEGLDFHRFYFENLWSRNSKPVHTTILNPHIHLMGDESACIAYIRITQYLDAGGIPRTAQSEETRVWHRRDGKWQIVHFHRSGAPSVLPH
Description: as §1, §2, §3, §4, §5

RSK1 (Mus musculus) = test system: T2, RSK1 (Mus musculus)
T2 construct: from tissue; host or cells: mouse brain
Description: as §1, §2, §3, §4, §5

CaMK2d = target: T3, CaMK2d (Mus musculus, UniProt Q6PHZ2)
T3 construct: […]; from tissue; host or cells: mouse brain
Description: as §1, §2, §3, §4, §5

CRIK = CRIK (Mus musculus, UniProt P49025)
Description: as §1, §2, §3, §4, §5

CaMK2b = CaMK2b (Mus musculus, UniProt P28652)
Description: as §1, §2, §3, §4, §5

MARK2 = target: T4, MARK2 (Mus musculus, UniProt Q05512)
T4 construct: from tissue; host or cells: mouse brain
Description: as §1, §2, §3, §4, §5

GSK3Aps = target: T5, GSK3Aps (Mus musculus, UniProt Q2NL51)
T5 construct: from tissue; host or cells: mouse brain
T5 sequence (Q2NL51 2-490 limits assumed): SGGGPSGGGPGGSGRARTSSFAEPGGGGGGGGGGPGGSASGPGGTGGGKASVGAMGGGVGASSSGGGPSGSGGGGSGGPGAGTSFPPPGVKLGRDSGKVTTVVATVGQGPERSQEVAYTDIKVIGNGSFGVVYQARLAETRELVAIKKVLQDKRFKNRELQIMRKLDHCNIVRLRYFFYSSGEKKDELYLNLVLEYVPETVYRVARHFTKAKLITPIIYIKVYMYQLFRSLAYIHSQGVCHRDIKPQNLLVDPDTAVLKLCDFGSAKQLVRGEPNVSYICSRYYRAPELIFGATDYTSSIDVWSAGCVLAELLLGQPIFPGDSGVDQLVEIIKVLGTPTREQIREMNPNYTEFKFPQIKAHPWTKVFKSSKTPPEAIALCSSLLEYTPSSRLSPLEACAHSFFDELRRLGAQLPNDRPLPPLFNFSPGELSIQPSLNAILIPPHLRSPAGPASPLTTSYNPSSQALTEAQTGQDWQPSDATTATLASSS
Description: as §1, §2, §3, §4, §5

FER = FER (Mus musculus, UniProt P70451)
Description: as §1, §2, §3, §4, §5

JNK2 = target: T6, JNK2 (Mus musculus, UniProt Q9WTU6)
T6 construct: from tissue; host or cells: mouse brain
T6 sequence (Q9WTU6 whole entry): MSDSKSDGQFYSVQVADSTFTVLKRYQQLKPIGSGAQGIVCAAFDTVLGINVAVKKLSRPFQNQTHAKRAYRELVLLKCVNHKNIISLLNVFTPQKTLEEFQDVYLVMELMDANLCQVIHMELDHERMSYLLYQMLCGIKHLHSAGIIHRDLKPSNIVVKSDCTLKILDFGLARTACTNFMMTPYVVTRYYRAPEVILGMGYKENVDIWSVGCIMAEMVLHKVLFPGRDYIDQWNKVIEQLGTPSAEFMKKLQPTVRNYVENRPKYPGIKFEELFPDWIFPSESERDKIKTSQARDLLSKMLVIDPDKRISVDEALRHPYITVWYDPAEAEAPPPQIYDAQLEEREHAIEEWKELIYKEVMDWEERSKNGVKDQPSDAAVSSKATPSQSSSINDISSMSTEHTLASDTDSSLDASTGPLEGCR
Description: as §1, §2, §3, §4, §5

Erk2 = target: T7, Erk2 (Mus musculus, UniProt P63085)
T7 construct: […]; from tissue; host or cells: mouse brain
T7 sequence (P63085 whole entry): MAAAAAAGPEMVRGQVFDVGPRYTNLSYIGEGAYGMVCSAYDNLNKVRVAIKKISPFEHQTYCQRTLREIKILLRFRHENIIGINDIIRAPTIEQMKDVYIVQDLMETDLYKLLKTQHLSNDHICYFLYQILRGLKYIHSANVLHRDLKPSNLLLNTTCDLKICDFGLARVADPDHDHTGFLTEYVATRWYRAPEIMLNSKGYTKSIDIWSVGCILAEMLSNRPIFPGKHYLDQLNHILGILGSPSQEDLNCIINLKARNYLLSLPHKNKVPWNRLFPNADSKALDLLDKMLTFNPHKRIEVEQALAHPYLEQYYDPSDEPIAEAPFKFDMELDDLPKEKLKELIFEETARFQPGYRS
Description: as §1, §2, §3, §4, §5

Erk1ps5 = target: T8, Erk1ps5 (Mus musculus, UniProt Q63844)
T8 construct: […]; from tissue; host or cells: mouse brain
Description: as §1, §2, §3, §4, §5

AAK1 = AAK1 (Mus musculus, UniProt Q3UHJ0)
Chain of AAK1 (Q3UHJ0 whole entry): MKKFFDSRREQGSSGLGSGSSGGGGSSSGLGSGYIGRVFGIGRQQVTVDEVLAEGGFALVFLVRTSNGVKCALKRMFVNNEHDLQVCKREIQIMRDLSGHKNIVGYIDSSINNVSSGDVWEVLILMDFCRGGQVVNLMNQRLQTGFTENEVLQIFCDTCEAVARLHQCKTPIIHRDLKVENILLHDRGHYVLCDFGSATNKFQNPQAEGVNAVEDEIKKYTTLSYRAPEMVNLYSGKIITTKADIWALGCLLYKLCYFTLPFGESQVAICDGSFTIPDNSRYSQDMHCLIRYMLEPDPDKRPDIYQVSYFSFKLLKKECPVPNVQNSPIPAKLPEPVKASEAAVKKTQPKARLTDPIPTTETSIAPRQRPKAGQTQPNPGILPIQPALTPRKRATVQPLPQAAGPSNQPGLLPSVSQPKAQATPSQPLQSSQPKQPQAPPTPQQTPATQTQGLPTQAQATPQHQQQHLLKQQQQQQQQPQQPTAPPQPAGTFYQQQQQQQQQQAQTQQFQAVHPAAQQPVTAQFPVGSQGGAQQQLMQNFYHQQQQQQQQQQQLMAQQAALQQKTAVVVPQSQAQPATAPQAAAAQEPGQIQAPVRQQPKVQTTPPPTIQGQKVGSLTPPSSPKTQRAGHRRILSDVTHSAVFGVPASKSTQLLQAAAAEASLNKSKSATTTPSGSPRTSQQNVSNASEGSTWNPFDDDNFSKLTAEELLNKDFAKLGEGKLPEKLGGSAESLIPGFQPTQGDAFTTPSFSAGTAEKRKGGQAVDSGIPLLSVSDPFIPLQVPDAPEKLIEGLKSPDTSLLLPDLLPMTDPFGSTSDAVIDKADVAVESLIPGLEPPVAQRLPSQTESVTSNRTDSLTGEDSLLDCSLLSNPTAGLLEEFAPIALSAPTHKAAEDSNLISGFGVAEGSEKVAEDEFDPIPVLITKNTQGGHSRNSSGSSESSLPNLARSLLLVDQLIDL
Description: as §1, §2, §3, §4, §5

PKCg = target: T9, PKCg (Mus musculus, UniProt P63318)
T9 construct: from tissue; host or cells: mouse brain
Description: as §1, §2, §3, §4, §5

PYK2 = target: T10, PYK2 (Mus musculus, UniProt Q9QVP9)
T10 construct: from tissue; host or cells: mouse brain
Description: as §1, §2, §3, §4, §5

MAP2K1 = target: T11, MAP2K1 (Mus musculus, UniProt P31938)
T11 construct: from tissue; host or cells: mouse brain
Description: as §1, §2, §3, §4, §5

CaMK2g = CaMK2g (Mus musculus, UniProt Q923T9)
Chain of CaMK2g (Q923T9 whole entry): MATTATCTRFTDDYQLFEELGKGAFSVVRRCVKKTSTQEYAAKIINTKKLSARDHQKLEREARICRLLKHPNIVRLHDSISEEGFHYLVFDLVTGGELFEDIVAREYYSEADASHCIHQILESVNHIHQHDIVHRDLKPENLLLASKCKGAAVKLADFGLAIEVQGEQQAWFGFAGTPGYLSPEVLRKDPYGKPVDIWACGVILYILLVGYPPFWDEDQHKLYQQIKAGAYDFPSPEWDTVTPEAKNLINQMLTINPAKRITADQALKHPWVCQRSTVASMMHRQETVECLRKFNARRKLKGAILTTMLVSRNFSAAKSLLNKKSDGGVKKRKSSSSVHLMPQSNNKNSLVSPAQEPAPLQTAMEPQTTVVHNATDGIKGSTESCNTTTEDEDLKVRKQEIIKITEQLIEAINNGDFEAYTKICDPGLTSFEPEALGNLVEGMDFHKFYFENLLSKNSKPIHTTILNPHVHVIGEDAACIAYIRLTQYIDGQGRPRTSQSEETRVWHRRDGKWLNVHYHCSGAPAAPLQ
From the text: (§6) This example illustrates competitive elution of proteins bound to kinobeads with non-modified test compounds (see particularly the fourth aspect of the invention).
as §2, §3
as §4, with “Open column (first top, then bottom), put column back into siliconized tube (SafeSeal Microcentrifuge Tubes, cat. no 11270, Sorenson BioScience, Inc.).” left out, “For protein separation apply 10 μl sample to NuPAGE 4-12% Bis-Tris gel (Invitrogen, NPO335).” left out
as §5

GSK3B = target: T12, GSK3B (Mus musculus, UniProt Q9WV60)
T12 construct: from tissue; host or cells: mouse brain
T12 sequence (Q9WV60 whole entry): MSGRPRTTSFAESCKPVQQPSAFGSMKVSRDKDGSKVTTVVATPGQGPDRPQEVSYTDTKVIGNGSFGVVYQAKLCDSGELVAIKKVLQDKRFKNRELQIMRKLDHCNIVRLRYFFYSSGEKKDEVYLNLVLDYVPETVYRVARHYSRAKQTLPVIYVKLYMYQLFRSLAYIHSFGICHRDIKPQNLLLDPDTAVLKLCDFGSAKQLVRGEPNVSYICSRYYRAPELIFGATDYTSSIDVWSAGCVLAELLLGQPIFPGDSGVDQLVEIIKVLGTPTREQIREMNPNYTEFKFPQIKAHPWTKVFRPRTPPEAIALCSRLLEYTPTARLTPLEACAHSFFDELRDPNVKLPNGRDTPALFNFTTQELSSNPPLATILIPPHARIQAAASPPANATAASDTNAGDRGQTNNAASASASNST
From the text: as §6, §2, §3
as §4, with “Open column (first top, then bottom), put column back into siliconized tube (SafeSeal Microcentrifuge Tubes, cat. no 11270, Sorenson BioScience, Inc.).” left out, “For protein separation apply 10 μl sample to NuPAGE 4-12% Bis-Tris gel (Invitrogen, NPO335).” left out
as §5

p38b = target: T13, p38b (Mus musculus, UniProt Q9WUI1)
T13 construct: from tissue; host or cells: mouse brain
Description: as §1, §2, §3, §4, §5

p38a = target: T14, p38a (Mus musculus, UniProt P47811)
T14 construct: from tissue; host or cells: mouse brain
Description: as §1, §2, §3, §4, §5

JNK3 = target: T15, JNK3 (Mus musculus, UniProt Q61831)
T15 construct: from tissue; host or cells: mouse brain
Description: as §1, §2, §3, §4, §5

JNK1 = target: T16, JNK1 (Mus musculus, UniProt Q91Y86)
T16 construct: from tissue; host or cells: mouse brain
Description: as §1, §2, §3, §4, §5

Chain of CDK5 (P49615 whole entry): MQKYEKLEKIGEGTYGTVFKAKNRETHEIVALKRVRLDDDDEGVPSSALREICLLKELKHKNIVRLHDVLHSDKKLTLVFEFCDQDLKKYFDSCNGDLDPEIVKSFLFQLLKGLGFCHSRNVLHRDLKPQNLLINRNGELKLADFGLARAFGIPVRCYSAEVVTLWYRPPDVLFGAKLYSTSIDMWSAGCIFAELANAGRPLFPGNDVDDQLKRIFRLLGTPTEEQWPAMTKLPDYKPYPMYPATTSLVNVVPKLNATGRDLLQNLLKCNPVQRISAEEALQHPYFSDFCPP

- mass spectrometry score, CDK5 (CDK5): 831
- number of identified peptides, CDK5 (CDK5): 19
- mass spectrometry score, CaMKK2 (CaMKK2): 314
- number of identified peptides, CaMKK2 (CaMKK2): 6
- mass spectrometry score, CaMK2a (CaMK2a): 911
- number of identified peptides, CaMK2a (CaMK2a): 53
- mass spectrometry score, RSK1 (RSK1 (Mus musculus)): 292
- number of identified peptides, RSK1 (RSK1 (Mus musculus)): 7
- mass spectrometry score, CaMK2d (CaMK2d): 702
- number of identified peptides, CaMK2d (CaMK2d): 17
- mass spectrometry score, CR1K (CRIK): 90
- number of identified peptides, CR1K (CRIK): 5
- mass spectrometry score, CaMK2b (CaMK2b): 834
- number of identified peptides, CaMK2b (CaMK2b): 52
- mass spectrometry score, MARK2 (MARK2): 49
- number of identified peptides, MARK2 (MARK2): 1
- mass spectrometry score, GSK3Aps (GSK3Aps): 1232
- number of identified peptides, GSK3Aps (GSK3Aps): 60
- mass spectrometry score, FER (FER): 237
- number of identified peptides, FER (FER): 6
- mass spectrometry score, JNK2 (JNK2): 287
- number of identified peptides, JNK2 (JNK2): 11
- mass spectrometry score, Erk2 (Erk2): 754
- number of identified peptides, Erk2 (Erk2): 50
- mass spectrometry score, Erk1ps5 (Erk1ps5): 418
- number of identified peptides, Erk1ps5 (Erk1ps5): 14
- mass spectrometry score, AAK1 (AAK1): 562
- number of identified peptides, AAK1 (AAK1): 38
- mass spectrometry score, PKCg (PKCg): 107
- number of identified peptides, PKCg (PKCg): 2
- mass spectrometry score, PYK2 (PYK2): 291
- number of identified peptides, PYK2 (PYK2): 7
- mass spectrometry score, MAP2K1 (MAP2K1): 208
- number of identified peptides, MAP2K1 (MAP2K1): 6
- mass spectrometry score, CaMK2g (CaMK2g): 550
- number of identified peptides, CaMK2g (CaMK2g): 18
- mass spectrometry score, GSK3B (GSK3B): 1176
- number of identified peptides, GSK3B (GSK3B): 54
Structure (SMILES): NCCCn1cc(C2=C(c3c[nH]c4ccccc34)C(=O)NC2=O)c2ccccc21 [CZC1038, Bisindolylmaleimide III, reference compound]

- mass spectrometry score, CDK5 (CDK5): 166
- number of identified peptides, CDK5 (CDK5): 4
- mass spectrometry score, p38b (p38b): 80
- number of identified peptides, p38b (p38b): 2
- mass spectrometry score, GSK3Aps (GSK3Aps): 406
- number of identified peptides, GSK3Aps (GSK3Aps): 8
- mass spectrometry score, JNK2 (JNK2): 170
- number of identified peptides, JNK2 (JNK2): 5
- mass spectrometry score, Erk2 (Erk2): 506
- number of identified peptides, Erk2 (Erk2): 20
- mass spectrometry score, p38a (p38a): 295
- number of identified peptides, p38a (p38a): 10
- mass spectrometry score, JNK3 (JNK3): 542
- number of identified peptides, JNK3 (JNK3): 30
- mass spectrometry score, AAK1 (AAK1): 198
- number of identified peptides, AAK1 (AAK1): 4
- mass spectrometry score, JNK1 (JNK1): 540
- number of identified peptides, JNK1 (JNK1): 19
- mass spectrometry score, GSK3B (GSK3B): 743
- number of identified peptides, GSK3B (GSK3B): 34
Structure (SMILES): Oc1ccc(-c2nc(-c3ccc(F)cc3)c(-c3ccncc3)[nH]2)cc1 [CZC7098]
